The results in this text go back to BindingDB's records for doi:10.1016/j.bmcl.2015.06.011 (Al-Zaytoonah University of Jordan, 2015).

SMILES strings stand for the structures.

Assay [1] in a line: Inhibition of PI3Kalpha in human HCT116 cells assessed as cell growth inhibition after 24 hrs by MTT assay. In general terms: Formazan colour is commonly taken as a measure of viable cells.
Assay [2] in a line: Inhibition of PI3Kalpha H1047R mutant in human HCT116 cells assessed as cell growth inhibition after 24 hrs by MTT assay.

Consider `O=C(c1ccccc1)C(O)c1ccccc1` (stereo not drawn), for which the concentration for half-maximal inhibition (IC50) in assay [1] and in assay [2] was 2120 µM each time.
In the case of `COc1ccc(C(=O)C(OC(=O)c2ccc(F)cc2)c2ccc(OC)cc2)cc1` (stereo not drawn), the IC50 in assay [1] and in assay [2] was 2820 µM throughout.
In the case of `O=C(OC(C(=O)c1ccccc1)c1ccccc1)c1ccc(Cl)cc1` (stereo not drawn), the IC50 in assay [1] and in assay [2] was 730 µM each time.
Take `O=C(OC(C(=O)c1ccccc1)c1ccccc1)c1ccc(F)cc1` (stereo not drawn): the IC50 in assay [1] and in assay [2] was 1290 µM each time.
On to `O=C(OC(C(=O)c1ccccc1)c1ccccc1)c1cccc(F)c1` (stereo not drawn), for which the IC50 in assay [1] and in assay [2] was 970 µM each time.
With `O=C(OC(C(=O)c1ccccc1)c1ccccc1)c1ccccc1F` (stereo not drawn), the IC50 in assay [1] and in assay [2] was 910 µM each time.
Regarding `O=C(OC(C(=O)c1ccccc1)c1ccccc1)c1ccc([N+](=O)[O-])cc1` (stereo not drawn), the IC50 in assay [1] and in assay [2] was 880 µM each time.
Consider `O=C(OC(C(=O)c1ccccc1)c1ccccc1)c1ccccc1` (stereo not drawn), for which the IC50 in assay [1] and in assay [2] was 2660 µM each time.
As for `COc1ccc(C(=O)C(O)c2ccc(OC)cc2)cc1` (stereo not drawn) [2-hydroxy-1,2-bis(4-methoxyphenyl)ethan-1-one], the IC50 in assay [1] and in assay [2] was 1170 µM each time.

What is called IC50 is the concentration that gives 50% inhibition.
